Laboratory results as given in publication PMC12362585, “Development and Preclinical Characterization of [^18F]H3-2406 and [^18F]H3-2407 for Positron Emission Tomography Imaging of the Histamine Subtype‑3 Receptor” (Journal of Medicinal Chemistry, 2025).

Experiments:
[1] = Log D by shake-flask method; assay type: physicochemical; conditions: n-octanol/PBS
Protocol: To evaluate the binding affinities of compounds 1–9, competitive radioligand binding assays were conducted using [^3H]-AZ13582963 [4-(1S,2S)-2-(4-cyclobutylpiperazine-1-carbonyl)-cyclopropyl)-N-methyl-[2-^3 H]-benzamide]. […]. […]. Further, ACD Percepta predictions indicated these compounds are likely to cross the blood-brain barrier (BBB), as indicated by a log BB > −1 and a multiparameter optimization (MPO) score >4.0. High selectivity toward H3R over other CNS targets is essential for effective H3R PET imaging. Therefore, off-target screenings of compounds 2, 3, and 4 were conducted against various CNS receptors, G protein-coupled receptors (GPCRs), transporters, and ion channels at 10 μM (Figure S1). […]. Sigma-1 receptors, crucial for ion channel function and associated with learning, memory, and pain, , have shown synergy with H3R antagonists, including PF-03654746 and ABT-239, potentially enhancing in vivo efficacy.
The lipophilicity was measured according to previously reported methods. , In brief, PBS and n-octanol were premixed prior to the experiment. A solution containing 0.2 MBq of [^18F]3 or [^18F]4, PBS (3 mL) and n-octanol (3 mL) were prepared in a vial and vortexed for 5 min. The PBS and n-octanol layers were then separated and transferred into a centrifuge tube, followed centrifugation at 12,000 rpm for 5 min. Then PBS (0.5 mL) and n-octanol (0.05 mL) were weight and measured the radioactivity on a γ counter (PerkinElmer Wizard). The Log D values of [ ^18F]3 and [^18F]4 were calculated using the following formula: LogD=Log[(radioactivityn‐octanol/weightn‐octanol)/(radioactivityPBS/weightPBS)]

sigma-1 receptor = sigma-1 receptor (Homo sapiens, UniProt Q99720); assay: sigma 1 binding assay; conditions: ratio of sigma-1 K i to H3R K i
H3R = biological target: T1, H3R (Mus musculus, UniProt P58406); assay: Dynamic PET imaging in CD1 mice, baseline and H3R antagonist blocking; assay type: in vivo; conditions: for V T, cerebellum / V T, cortex / V T, hippocampus / V T, striatum / V T, thalamus / V T, whole brain: Logan analysis, IDIF
T1 construct: dynamic PET imaging studies were conducted in CD1 mice; from tissue; host or cells: brain of living CD1 mice
Protocol: To elucidate the in vivo brain uptake of [^18F]3 and [^18F]4, dynamic PET imaging studies were conducted in CD1 mice (an outbred strain of immunocompetent mice commonly used for pharmacokinetic and biodistribution studies) for 60 min. The results, which include summed PET images (0–60 min), whole-brain time-activity curves (TACs), and area under the curve (AUC) for both radioligands, are depicted in Figures and . At baseline, [^18F]3 rapidly crossed the BBB following intravenous injection, reaching peak whole-brain uptake with a standardized uptake value (SUV) value of 2.4 at 2.3 min. This was followed by a gradual washout and reached a SUV of 1.87 by 60 min. To evaluate the binding characteristics of [^18F]3, elective H3R antagonists with distinct structural scaffolds, GSK189254, enerisant, and cipralisant, were used as blocking agents. […] Quantification of specific tracer binding was performed using volume of distribution (V T) values, derived from compartmental modeling and an image-derived input function (IDIF). […] While these findings support the utility of [^18F]3 for in vivo studies, we acknowledge the inherent limitations of IDIF, including the lack of metabolite correction and potential inaccuracies in capturing early phase kinetics.
PET imaging was conducted following previously reported methods. CD1 mice (5–6 weeks) were anesthetized with 1.5% (v/v) isoflurane during the scan. A dose of 3.0 MBq of [^18F]3 or [^18F]4 was intravenously injected into the tail vein, and a dynamic scan was acquiring using a PET scanner (MOLECUBES, beta-cube) for 60 min. In the blocking studies, GSK189254 (3 mg/kg) in 0.1 mL of saline containing 5% ethanol and 5% Tween-80 was preinjected for 10 min prior to the injection of PET radioligands. The results were reconstructed and analyzed by PMOD 4.3 software.
Quantification of specific tracer binding was performed using volume of distribution (VT) values, derived from compartmental modeling and an image-derived input […]
significant reduction in H3R-rich brain regions such as the cortex and striatum under blocking conditions with GSK189254, enerisant, and cipralisant, confirming the specificity of [18F]3 binding (Table S1).
Table S1. Estimation of V T values by Logan analysis in mice with [ 18F]3 at baseline, GSK189254-blocking (3 mg/kg), enerisant-blocking (3 mg/kg), and cipralisant-blocking (3 mg/kg) conditions.
Group Baseline GSK189254 Enerisant Cipralisant blocking blocking blocking

[2] = In vitro stability in serum, mice; assay type: in vitro ADME; conditions: 37 °C, 30, 60 and 90 min
Protocol: (§1) To assess the stability of [^18F]3, in vitro radioactivity analyses were conducted following 30-, 60- and 90 min coincubation of the radioligand in the serum and liver microsomes from mice, nonhuman primates (NHPs), and humans (Figure ).
(§2) Serum from mice, NHPs, and humans were warmed to room temperature, 15 MBq of [^18F]3 was added to 0.4 mL of each species’ serum. The mixtures were incubated at 37 °C and 0.1 mL of mixture was transferred into 0.2 mL cold acetonitrile at 30, 60, and 90 min. The samples were vortexed for 15 s and then centrifuged at 10,000g for 5 min. The supernatant was analyzed using analytical HPLC (Agilent 1100 series HPLC system on Phenomenex Luna C-18 column (4.6 × 150 mm), mobile phase 30% CH3CN/0.1% TFA in water, flow:1 mL/min). For microsomes studies, a mixture of microsomes (0.5 mg/mL), [^18F]3 (15 MBq), 0.35 mL of PBS, 0.05 mL of NADPH regenerating system A, and 0.01 mL of NADPH regenerating system B were incubated at 37 °C. The subsequent steps followed the same procedure as described above.

[3] = In vitro stability in serum, humans; assay type: in vitro ADME; conditions: human serum, 37 °C, 30, 60 and 90 min
Protocol: as §1, §2

[4] = mice pretreated with GSK189254 (3 mg/kg)

T1 sequence (P58406 whole entry): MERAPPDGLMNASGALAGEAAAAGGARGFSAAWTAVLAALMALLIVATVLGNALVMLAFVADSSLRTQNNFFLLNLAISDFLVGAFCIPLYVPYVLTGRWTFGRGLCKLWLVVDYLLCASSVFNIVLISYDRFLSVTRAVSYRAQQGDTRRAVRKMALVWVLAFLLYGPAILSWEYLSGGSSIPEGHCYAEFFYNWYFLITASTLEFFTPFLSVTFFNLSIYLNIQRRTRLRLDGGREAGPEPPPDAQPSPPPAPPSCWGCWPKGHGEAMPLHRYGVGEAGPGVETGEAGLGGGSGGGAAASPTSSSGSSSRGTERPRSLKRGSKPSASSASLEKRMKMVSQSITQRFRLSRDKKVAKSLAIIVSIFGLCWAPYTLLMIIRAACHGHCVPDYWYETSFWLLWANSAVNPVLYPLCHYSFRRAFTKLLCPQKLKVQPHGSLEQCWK
Chain of sigma-1 receptor (Q99720 whole entry, species assumed): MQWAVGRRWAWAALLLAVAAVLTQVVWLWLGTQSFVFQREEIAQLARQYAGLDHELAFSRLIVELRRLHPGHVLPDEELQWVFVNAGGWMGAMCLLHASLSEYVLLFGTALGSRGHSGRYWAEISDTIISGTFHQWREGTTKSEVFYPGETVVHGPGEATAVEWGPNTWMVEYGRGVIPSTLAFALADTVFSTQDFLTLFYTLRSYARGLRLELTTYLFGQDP

logD [1]: 2.82
selectivity of H3R over sigma-1 (sigma-1 receptor): 69 fold
whole-brain signal reduction based on AUC, GSK189254 blocking (H3R; GSK189254 3 mg/kg, 0–60 min): 32.5%
V T, cerebellum (H3R; GSK189254 blocking 3 mg/kg): 3.85 ± 0.61
V T, cortex (H3R; GSK189254 blocking 3 mg/kg): 2.17 ± 0.08
V T, hippocampus (H3R; GSK189254 blocking 3 mg/kg): 3.77 ± 0.47
V T, striatum (H3R; GSK189254 blocking 3 mg/kg): 2.91 ± 0.05
V T, thalamus (H3R; GSK189254 blocking 3 mg/kg): 3.90 ± 0.90
V T, whole brain (H3R; GSK189254 blocking 3 mg/kg): 3.40 ± 0.44
V T, cerebellum (H3R; baseline): 5.59 ± 0.37
V T, cortex (H3R; baseline): 4.82 ± 0.09
V T, hippocampus (H3R; baseline): 5.80 ± 0.05
V T, striatum (H3R; baseline): 5.64 ± 0.02
V T, thalamus (H3R; baseline): 6.71 ± 0.05
V T, whole brain (H3R; baseline): 5.29 ± 0.52
V T, cerebellum (H3R; cipralisant blocking 3 mg/kg): 2.94 ± 0.33
V T, cortex (H3R; cipralisant blocking 3 mg/kg): 2.38 ± 0.34
V T, hippocampus (H3R; cipralisant blocking 3 mg/kg): 2.61 ± 0.32
V T, striatum (H3R; cipralisant blocking 3 mg/kg): 2.67 ± 0.33
V T, thalamus (H3R; cipralisant blocking 3 mg/kg): 2.78 ± 0.40
V T, whole brain (H3R; cipralisant blocking 3 mg/kg): 2.61 ± 0.30
V T, cerebellum (H3R; enerisant blocking 3 mg/kg): 3.73 ± 0.16
V T, cortex (H3R; enerisant blocking 3 mg/kg): 3.18 ± 0.12
V T, hippocampus (H3R; enerisant blocking 3 mg/kg): 3.84 ± 0.19
V T, striatum (H3R; enerisant blocking 3 mg/kg): 3.48 ± 0.27
V T, thalamus (H3R; enerisant blocking 3 mg/kg): 4.11 ± 0.26
V T, whole brain (H3R; enerisant blocking 3 mg/kg): 3.58 ± 0.18
time of peak whole-brain uptake (H3R; baseline, CD1 mice): 2.3 min
whole-brain uptake at 60 min (H3R; baseline, CD1 mice): 1.87 SUV
peak whole-brain uptake (H3R; baseline, intravenous injection, CD1 mice): 2.4 SUV
whole-brain AUC reduction, cipralisant blocking (H3R; cipralisant 3 mg/kg, 0–60 min): 38.4%
whole-brain AUC reduction, enerisant blocking (H3R; enerisant 3 mg/kg, 0–60 min): 35.6%
brain radioactivity at 60 min (H3R; [4]): 1.27 SUV
peak brain radioactivity (H3R; [4]): 1.98 SUV
time of peak brain radioactivity (H3R; [4]): 1.9 min
parent compound remaining intact in serum [2]: over 95%
parent compound remaining intact in serum [3]: over 95%
SMILES: O=C([C@H]1C[C@@H]1c1ccc([18F])cc1)N1CCN(C2CCCC2)CC1 [[^18F]3]
